Source: ChEMBL document CHEMBL1124908, “Synthesis and antiviral activity of 3'-deoxy-3'-C-hydroxymethyl nucleosides” (J Med Chem, 1990)
In brackets after ≈: the same amount, converted by molar mass.

Key:
[1] = tested on: Human alphaherpesvirus 1; experiment: Minimum inhibitory concentration which is active against herpes simplex virus type-1 (HSV-1); value ranges from 0.007-0.01 ug/mL; type: functional
[2] = tested on: Human alphaherpesvirus 3; experiment: Anti-viral activity which is required for the inhibition of VZV (Varicella zoster virus ); type: functional, organism-based
[3] = tested on: Human alphaherpesvirus 3; experiment: Minimum inhibitory concentration which is active against Varicella zoster virus (VZV); value ranges from 0.0002-0.003 ug/mL; type: functional
[4] = tested on: CV-1; experiment: Inhibitory concentration which is active against Varicella zoster virus (VZV) in CV-1 cells; type: functional, cell-based, Cercopithecidae; details: Chlorocebus aethiops
[5] = tested on: MRC5; experiment: Inhibitory concentration which is active against Varicella zoster virus (VZV) in MRC-5 cells; type: functional, cell-based; details: Homo sapiens

Row | Compound | MIC [1] [ng/mL] | IC50 [2] [ng/mL] | MIC [3] [ng/mL] | IC50 [4] [ng/mL] | IC50 [5] [ng/mL]
1 | O=c1[nH]c(=O)n([C@H]2C[C@H](O)[C@@H](CO)O2)cc1/C=C/Br [BRIVUDINE] | 7 (≈ 0.021 µM) | 2.4 (≈ 0.0072 µM) | 0.2 (≈ 0.0006 µM) |  | 
2 | O=c1[nH]c(=O)n(C2O[C@H](CO)[C@H](CO)[C@H]2O)cc1/C=C/Br (stereo not given in full) |  |  |  | 4400 (≈ 12.1 µM) | 15300 (≈ 42.1 µM)
